Experimental findings from ChEMBL document CHEMBL1152256, “Synthesis of Arabino glycosyl triazoles as potential inhibitors of mycobacterial cell wall biosynthesis” (2008) are described below.

For the assay, the system named is Escherichia coli. Put plainly: Antibacterial activity against Escherichia coli JM109 at 1 mg/mL. The format is functional, organism-based.

The source made the active and inactive calls. The rule behind the calls is not given here.

`CCCCCCc1cn([C@@H]2O[C@H](CO)[C@@H](O)[C@@H]2O)nn1`: the result was inactive. Regarding `CCCCCCCCc1cn([C@@H]2O[C@H](CO)[C@@H](O)[C@@H]2O)nn1`, the result was inactive. Take `CC(C)=CCC/C(C)=C/CC/C(C)=C/COCc1cn([C@@H]2O[C@H](CO)[C@@H](O)[C@@H]2O)nn1`: the result was inactive.

As for `CCCCCCCCCCc1cn([C@@H]2O[C@H](CO)[C@@H](O)[C@@H]2O)nn1`, the result was inactive. Regarding `OC[C@H]1O[C@@H](n2cc(-c3ccccc3)nn2)[C@@H](O)[C@@H]1O`, the outcome was inactive. On to `CCCCCCCCCCCCCCOCc1cn([C@@H]2O[C@H](CO)[C@@H](O)[C@@H]2O)nn1`, for which the outcome was inactive.
